Molecular target: A2A receptor (Rattus norvegicus, UniProt P30543)
Assay: Striatal A2A occupancy in rats by ex vivo autoradiography
Parameters: incubation of the tracer with brain slices obtained from rats dosed with compound 504; from tissue; host or cells: striatum in coronal brain sections of male CD rats (Charles River Japan)
Experimental: After that the artery and vein blood was collected into tubes containing heparin. Immediately after that the brain was removed and ebbed in OCT compound and frozen in 2-methyl butane cooled with dry ice. The frozen brains were preserved at −80 C until use.
Coronal sections (20 μm) at about bregma 1.2 mm were prepared using a cyromicrotome (Coldtome, set temperature—20 C), Sakura) and placed on a slide glass (Super Frost, Matsunami Glass; 2 or 3 sections per glass). The brain sections collected on the slide glass were preserved at −80 C. Seventy μL of the reaction solution containing the tracer at 0.1 or 0.3 nmol/L was applied on the brain section and incubated at room temperature for the preset time. The reaction solution containing the tracer was handled using siliconized tools. After the incubation with the tracer, the brain section was washed for 1 minute with ice-cold wash solution three times and rinsed with ice-cold water twice. Non-specific binding of the tracer was evaluated by performing the same reaction with the brain section prepared from drug-untreated rats in the presence of 0.1 mmol/1 NECA. The brain section was dried at room temperature, exposed to the imaging plate (BAS-TR2040, Fuji Film) in a cassette, and left in a shield box for about 24 hours. The radioactivity was recorded under the following conditions: Resolution: 50 μm; Gradation: 256; Sensitivity: 10000; Latitude:5.
These plasma samples were used as calibration curve samples.
To pre-treat plasma samples, the internal standard (I.S.) was dissolved in acetonitrile to prepare an I.S. solution at 0.03 μg/mL. Plasma sample was diluted with control plasma whenever necessary. To 0.1 mL of plasma sample, 10 μL of the I.S. solution and 1 mL of 10 mmol/L ammonium acetate were added and stirred to prepare the sample for pretreatment. The sample was pretreated using Oasis HLB Extraction Plate (30 mg, Waters). Each well was serially conditioned with 1 mL of methanol and water. One ml of the sample for pretreatment was loaded on a well. After each well was washed with 1 mL of 5% vol % methanol, the analyte was eluted with 1 mL acethonitrile. The eluate was evaporated under nitrogen gas stream and the residue was redssolved in 0.1 mL of the reconstituted solution. The sample was centrifuged at 4 C, about 1800×G for 5 minutes using […] (0.45 μm hydrophilic PVDF, Whatman). An aliquote of the filtrate was used for analysis.
Calculation of the A2A receptor occupancy in striatum was done using the below formula
Φ(%)=(1−(PSLKW−BG/A)/(PSLctrl−BG/A))*100
Where PSLKW- and PSLctrl are PSL values in the ROI of compound 504-[…] animal, respectively. PLS is Photo stimulated luminescence for detection of tracer and ROI is region of interest for tracer measurement in striatum. […]

Chain of A2A receptor (P30543 whole entry): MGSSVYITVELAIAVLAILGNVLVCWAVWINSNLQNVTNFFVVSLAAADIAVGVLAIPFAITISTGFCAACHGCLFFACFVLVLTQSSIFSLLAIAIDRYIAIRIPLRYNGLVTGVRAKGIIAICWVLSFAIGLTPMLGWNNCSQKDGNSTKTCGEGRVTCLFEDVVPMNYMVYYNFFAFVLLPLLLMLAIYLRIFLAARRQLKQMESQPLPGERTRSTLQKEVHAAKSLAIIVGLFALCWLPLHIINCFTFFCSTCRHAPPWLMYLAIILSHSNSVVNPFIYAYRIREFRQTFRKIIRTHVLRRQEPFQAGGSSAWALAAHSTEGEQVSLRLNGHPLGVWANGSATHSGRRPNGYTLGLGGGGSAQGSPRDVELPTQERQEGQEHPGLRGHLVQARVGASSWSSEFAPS

Cc1ccc(C(=O)Nc2nc(-c3ccco3)c(C(=O)C3CCOCC3)s2)cn1 [Compound 504]
equilibration half-life (hysteresis evaluation, semi compartment PK model, rat): < 30 min | EC80 plasma concentration of rat striatal occupancy (predicted from rat occupancy Emax PK/PD model): 1.25 mg/L | EC50 (rat, 0.3 mg/kg oral, Emax model, 95% CI 113 to 128 ng/mL, read-out: EC50 plasma concentration for striatal A2A receptor occupancy (converted)): 0.304 µM | receptor occupancy at 0.175 µg/mL (rat, read-out: A2A occupancy corresponding to marmoset EC80 of 175 ng/mL): > 50%
